Like-named read-outs stand apart in the source and are kept apart here.
Key:
Assay in all cases: Anti-bacterial test, minimum inhibitory concentration on agar
Format in all cases: cell-based
[1] = test system: Proteus mirabilis IFO 3849; conditions: Proteus mirabilis IFO 3849, medium TSA; for MIC: IFO3849, read-out: Minimum inhibitory concentration
From the text: (§1) The compound (I) thus obtained is useful as a drug, being active against certain gram-positive and gram-negative bacteria. By way of example, the compounds are active against the following micro-organisms.
(§2) The media and compounds employed in the anti-bacterial test are as follows: • Media: • TSA = Trypticase soy agar • [Baltimore Biologicals (U.S.A.)] • B-TSA = Blood trypticase soy agar • Compounds: • Compound A = Sodium 3-[2-(2-amino-4-thiazolyl)-2-methoxyiminoacetamido]-2-oxo-azetidine-1-sulphonate • Compound B = Sodium 3-[D(-)-N-(4-ethyl-2,3-dioxo-1-piperazinocarbonyl)-phenyl-glycin- amido]-2-oxoazetidine-1-sulphonate • Compound C = Sodium 3-[D(-)-N-(4-ethyl-2,3-dioxo-1-piperazinocarbonyl)phenylglycinamido]-3-methoxy-2-oxoazetidine-1-sulphonate • Compound D = Sodium 3-[2-(4-ethyl-2,3-dioxo-1-piperazinocarboxamido)-2-(2-amino-4-thiazolyl)-acetamido]-2-oxoazetidine-1-sulphonate • Compound E = Sodium 3-[DL-2-(4-ethyl-2,3-dioxo-1-piperazinocarboxamido)-2-thienylacetamido]-2-oxoazetidine-1-sulphonate • Compound F = Sodium 3-[D-2-(4-ethyl-2,3-dioxo-1-piperazinocarboxamido)-2-thienylacetamido]-2-oxoazetidine-1-sulphonate • Compound G = Sodium 3-[D-2-(4-n-octyl-2,3-dioxo-1-piperazinocarboxamido)-2-phenylacetamido]-2-oxoazetidine-1-sulphonate • Compound H = Sodium 3-[2-(4-n-octyl-2,3-dioxo-1-piperazinocarboxamido)-2-(2-amino-4-thiazolyl)-acetamido]-2-oxoazetidine-1-sulphonate • Compound I = Sodium 3-[D-2-[(2-oxo-3-furfurylideneaminoimidazolidin-1-yl)-carboxamido]-2-phenylacetamido]-2-oxoazetidine-1-sulphonate • Compound J = Sodium 3-[2-(4-n-octyl-2,3-dioxo-1-piperazinocarboxamido)-2-thienylacetamido]-2-oxoazetidine-1-sulphonate • Compound K = Sodium 3-[D-2-[[2-oxo-3-(thiophen-2-aidoimino)-imidazolidin-1-yl]-carboxamido]-2-phenylacetamido]-2-oxoazetidine-1-sulphonate • Compound L = Sodium 3-[2-[(2-oxo-3-furfurylideneaminoimidazolidin-1-yl)-carboxamido]-2-thienylacetamido]-2-oxoazetidine-1-sulphonate

[2] = test system: Streptococcus pyogenes S—8; conditions: Streptococcus pyogenes S—8, medium B—TSA; for MIC: read-out: Minimum inhibitory concentration
From the text: as §1, §2

[3] = test system: Staphylococcus aureus 1840; conditions: Staphylococcus aureus 1840, medium TSA
From the text: as §1, §2

[4] = test system: Proteus vulgaris IFO 3988
From the text: as §1, §2

[5] = test system: Streptococcus mitis America; conditions: Streptococcus mitis America, medium B—TSA
From the text: as §1, §2

[6] = test system: Escherichia coli NIHJ JC—2; conditions: Escherichia coli NIHJ JC—2, medium TSA; for MIC: read-out: Minimum inhibitory concentration
From the text: as §1, §2

[7] = test system: Staphylococcus aureus 308A—1; conditions: Staphylococcus aureus 308A—1, medium TSA
From the text: as §1, §2

[8] = test system: Pseudomonas aeruginosa U 31; conditions: Pseudomonas aeruginosa U 31, medium TSA; for MIC: U31, read-out: Minimum inhibitory concentration
From the text: as §1, §2

[9] = test system: Corynebacterium diphtheriae Toronto; conditions: Corynebacterium diphtheriae Toronto, medium B—TSA; for MIC: read-out: Minimum inhibitory concentration
From the text: as §1, §2

[10] = test system: Bordetella bronchiseptica Sagami; conditions: Bordetella bronchiseptica Sagami, medium B—TSA
From the text: as §1, §2

[11] = test system: Streptococcus pneumoniae Type I; conditions: Streptococcus pneumoniae Type I, medium B—TSA
From the text: as §1, §2

Escherichia coli O—111 = conditions: medium TSA
From the text: as §1, §2

[12] = test system: Staphylococcus aureus FDA209P; conditions: Staphylococcus aureus FDA209P; for MIC: Staphylococcus aureus, FDA209P, read-out: Minimum inhibitory concentration
From the text: as §1, §2

[13] = test system: Proteus morganii IFO 3168; conditions: Proteus morganii IFO 3168, medium TSA; for MIC: Morganella morganii, IFO3168, read-out: Minimum inhibitory concentration
From the text: as §1, §2

[14] = test system: Citrobacter freundii IFO 12681; conditions: Citrobacter freundii IFO 12681, medium TSA
From the text: as §1, §2

Klebsiella pneumoniae DT = conditions: for MIC: read-out: Minimum inhibitory concentration
From the text: as §1, §2

Escherichia coli T-7 = conditions: for Minimum inhibitory concentration: medium TSA
From the text: as §1, §2

[15] = test system: Enterobacter cloacae IFO 12937; conditions: Enterobacter cloacae IFO 12937, medium TSA; for MIC: IFO12937, read-out: Minimum inhibitory concentration
From the text: as §1, §2

[16] = test system: Acinetobacter calcoaceticus IFO 13006; conditions: Acinetobacter calcoaceticus IFO 13006, medium TSA
From the text: as §1, §2

[17] = test system: Serratia marcescens IFO 12648; conditions: Serratia marcescens IFO 12648, medium TSA; for MIC: IFO12648, read-out: Minimum inhibitory concentration
From the text: as §1, §2

[18] = test system: Pseudomonas aeruginosa IFO 3455; conditions: Pseudomonas aeruginosa IFO 3455, medium TSA
From the text: as §1, §2

Candida albicans TA = conditions: Candida albicans TA, medium TSA; for MIC: read-out: Minimum inhibitory concentration
From the text: as §1, §2

[19] = test system: Streptococcus pyogenes E—14; conditions: Streptococcus pyogenes E—14, medium B—TSA; for MIC: read-out: Minimum inhibitory concentration
From the text: as §1, §2

[20] = test system: Streptococcus faecium IFO 3128; conditions: Streptococcus faecium IFO 3128, medium B—TSA
From the text: as §1, §2

[21] = Proteus vulgaris IFO 3988, medium TSA
[22] = Klebsiella pneumoniae DT, medium TSA
[23] = read-out: Minimum inhibitory concentration

CCN1CCN(C(=O)N[C@H](C(=O)NC2CN(S(=O)(=O)[O-])C2=O)c2cccs2)C(=O)C1=O.[Na+] (stereo partly drawn) [Compound F, Sodium 3-[D-2-(4-ethyl-2,3-dioxo-1-piperazinocarboxamido)-2-thienylacetamido]-2-oxoazetidine-1-sulphonate]
Minimum inhibitory concentration [1]: 0.78 µg/mL | Minimum inhibitory concentration [2]: 3.13 µg/mL | Minimum inhibitory concentration [3]: 25 µg/mL | Minimum inhibitory concentration [4, 21]: <0.1 µg/mL | Minimum inhibitory concentration [5]: 25 µg/mL | Minimum inhibitory concentration [6]: 0.78 µg/mL | Minimum inhibitory concentration [7]: 6.25 µg/mL | Minimum inhibitory concentration [8]: >100 µg/mL | Minimum inhibitory concentration [9]: 0.78 µg/mL | Minimum inhibitory concentration [10]: >100 µg/mL | Minimum inhibitory concentration [11]: 6.25 µg/mL | Minimum inhibitory concentration (Escherichia coli O—111): 0.2 µg/mL | Minimum inhibitory concentration ([12]; medium B—TSA): 6.25 µg/mL | Minimum inhibitory concentration ([12]; medium TSA): 6.25 µg/mL | Minimum inhibitory concentration [13]: 12.5 µg/mL | Minimum inhibitory concentration [14]: 1.56 µg/mL | Minimum inhibitory concentration (Klebsiella pneumoniae DT; [22]): 0.2 µg/mL | Minimum inhibitory concentration (Escherichia coli T-7): >100 µg/mL | Minimum inhibitory concentration [15]: 50 µg/mL | Minimum inhibitory concentration [16]: 25 µg/mL | Minimum inhibitory concentration [17]: 1.56 µg/mL | Minimum inhibitory concentration [18]: 6.25 µg/mL | Minimum inhibitory concentration (Candida albicans TA): >100 µg/mL | Minimum inhibitory concentration [19]: 3.13 µg/mL | Minimum inhibitory concentration [20]: >100 µg/mL

CCN1CCN(C(=O)N[C@@H](C(=O)NC2CN(S(=O)(=O)O)C2=O)c2ccccc2)C(=O)C1=O (single isomer, unassigned) [Compound B, Sodium 3-[D(-)-N-(4-ethyl-2,3-dioxo-1-piperazinocarbonyl)-phenyl-glycin-amido]-2-oxoazetidine-1-sulphonate]
MIC [1]: 0.78 µg/mL | MIC [2]: 6.25 µg/mL | MIC [3, 23]: 25 µg/mL | MIC ([4]; IFO3988, Proteus vulgaris IFO 3988, medium TSA, read-out: Minimum inhibitory concentration): 0.1 µg/mL | MIC [5, 23]: 25 µg/mL | MIC [6]: 1.56 µg/mL | MIC [7, 23]: 3.13 µg/mL | MIC [8]: > 100 µg/mL | MIC [9]: 3.13 µg/mL | MIC [10, 23]: > 100 µg/mL | MIC [11, 23]: 6.25 µg/mL | MIC (Escherichia coli O—111): 0.2 µg/mL | MIC ([12]; medium B—TSA): 6.25 µg/mL | MIC ([12]; medium TSA): 6.25 µg/mL | MIC [13]: 25 µg/mL | MIC ([14]; IFO12681, read-out: Minimum inhibitory concentration): 6.25 µg/mL | MIC (Klebsiella pneumoniae DT; [22]): 0.2 µg/mL | MIC (Escherichia coli T-7; T7, medium TSA): > 100 µg/mL | MIC [15]: 50 µg/mL | MIC ([16]; IFO13006, read-out: Minimum inhibitory concentration): 25 µg/mL | MIC [17]: 3.13 µg/mL | MIC ([18]; IFO3455, read-out: Minimum inhibitory concentration): 1.56 µg/mL | MIC (Candida albicans TA): > 100 µg/mL | MIC [19]: 3.13 µg/mL | MIC ([20]; Enterococcus faecium, IFO3128, read-out: Minimum inhibitory concentration): > 100 µg/mL

CCN1CCN(C(=O)N[C@@H](C(=O)NC2(OC)CN(S(=O)(=O)O)C2=O)c2ccccc2)C(=O)C1=O (single isomer, unassigned) [Compound C, Sodium 3-[D(-)-N-(4-ethyl-2,3-dioxo-1-piperazinocarbonyl)phenylglycinamido]-3-methoxy-2-oxoazetidine-1-sulphonate]
MIC [1]: 50 µg/mL | MIC [2]: 50 µg/mL | MIC ([4]; Proteus vulgaris, IFO3988, read-out: Minimum inhibitory concentration): 12.5 µg/mL | MIC [6]: 50 µg/mL | MIC [8]: > 100 µg/mL | MIC [9]: 50 µg/mL | MIC (Escherichia coli O—111): 12.5 µg/mL | MIC ([12]; medium TSA): 100 µg/mL | MIC [13]: > 100 µg/mL | MIC (Klebsiella pneumoniae DT; Klebsiella pneumoniae): 12.5 µg/mL | MIC [15]: > 100 µg/mL | MIC [17]: 50 µg/mL | MIC (Candida albicans TA): > 100 µg/mL | MIC [19]: 50 µg/mL

CCCCCCCCN1CCN(C(=O)NC(C(=O)NC2CN(S(=O)(=O)[O-])C2=O)c2cccs2)C(=O)C1=O.[Na+] (stereo not shown) [Compound J, Sodium 3-[2-(4-n-octyl-2,3-dioxo-1-piperazinocarboxamido)-2-thienylacetamido]-2-oxoazetidine-1-sulphonate]
Minimum inhibitory concentration [1]: 3.13 µg/mL | Minimum inhibitory concentration [2]: 1.56 µg/mL | Minimum inhibitory concentration [3]: 6.25 µg/mL | Minimum inhibitory concentration [4, 21]: 1.56 µg/mL | Minimum inhibitory concentration [5]: 25 µg/mL | Minimum inhibitory concentration [6]: 3.13 µg/mL | Minimum inhibitory concentration [7]: 1.56 µg/mL | Minimum inhibitory concentration [8]: 25 µg/mL | Minimum inhibitory concentration [9]: 0.78 µg/mL | Minimum inhibitory concentration [10]: >100 µg/mL | Minimum inhibitory concentration [11]: 1.56 µg/mL | Minimum inhibitory concentration ([12]; medium B—TSA): 3.13 µg/mL | Minimum inhibitory concentration ([12]; medium TSA): 1.56 µg/mL | Minimum inhibitory concentration [13]: 1.56 µg/mL | Minimum inhibitory concentration [14]: 3.13 µg/mL | Minimum inhibitory concentration (Klebsiella pneumoniae DT; [22]): 1.56 µg/mL | Minimum inhibitory concentration (Escherichia coli T-7): >100 µg/mL | Minimum inhibitory concentration [15]: 6.25 µg/mL | Minimum inhibitory concentration [16]: 6.25 µg/mL | Minimum inhibitory concentration [17]: 1.56 µg/mL | Minimum inhibitory concentration [18]: 6.25 µg/mL | Minimum inhibitory concentration (Candida albicans TA): >100 µg/mL | Minimum inhibitory concentration [19]: 1.56 µg/mL | Minimum inhibitory concentration [20]: >100 µg/mL

Source: EP0021678B1, “1-Sulpho-2-oxoazetidine derivatives, their production and pharmaceutical compositions thereof” (Takeda Chemical Industries, Ltd., priority 1979, dated 1981)
